Common to all, as to type: cell-based, human
In assay [1] the test system is hMSCs. Briefly: Protein synthesis assay in undifferentiated hMSCs. As to conditions: for citrate-mediated protein synthesis in presence of inhibitor: GM, with citrate. The protocol: Upon 24 and 96 hours incubation, protein synthesis was measured by labeling the intracellular translating proteins with clickable probes (Protein Synthesis Assay kit, Cayman Chemical, Ann Arbor, Mich.).

The test system of assay [2] is hMSCs. Briefly: ALP production / osteogenic markers of hMSCs with soluble citrate, PSer or inhibitor (PNPP assay, western blot). (In western blotting, separated proteins are transferred to a membrane and probed.)
Description: (§1) hMSCs with passage ≤6 were used in the present differentiation study. […] For osteo-phenotype progression assessment, cells were lysed, and alkaline phosphatase (ALP) production was quantified by using p-nitrophenyl phosphate (PNPP) as its substrate. Alizarin Red was used to stain the calcium nodules formed by the differentiating cells, and the calcium content in the nodules was quantified by Calcium Assay Kit (Sigma-Aldrich, St. Louis, Mo.) and normalized to protein amount as determined by BCA protein assay kit (Thermo Scientific™, Waltham, Mass.). Expression of osteogenic master transcription factor Runx2 was examined by real-time PCR and by using a Runx2 ELISA kit (American Research Products, Inc.™, Waltham, Mass.) according to manufacturer's instructions. Moreover, the expression of bone matrix proteins Collagen type I and osteopontin (OPN) were evaluated with real-time PCR, while OPN expression were also observed by immunofluorescent staining. Western blot was performed to evaluate the expression of ALP, OPN and SLC13a5 before or after differentiating for predetermined time periods.
For ALP expression analysis, cell samples were lysed using RIPA buffer, and the cell lysate was centrifuged to remove debris. Then ALP activity measurement was performed by utilizing p-nitrophenyl phosphate (PNPP) which is hydrolyzed by ALP into a yellow colored product. Briefly, the PNPP stock solution (IM) was diluted with ALP assay buffer at a ratio of 1:100, 50 μL of which was subsequently added to 50 μL of lysate sample. After 10-30 min of incubation at 37° C., the plates were measured at 405 nm on a plate reader (TECAN, Männedorf, Switzerland). The same cell lysate solutions were used to determine DNA amount via a PicoGreen dsDNA quantification kit (Invitrogen, Carlsbad, Calif.) according to the manufacturer's instructions.
After protein quantification by BCA assay, gel electrophoresis was carried out on AnykD™ Mini-Protean TGX stain-free Protein gels at 50 V for 10 min, followed by 250 V for 10-20 min, and was transferred to PVDF membranes with the Trans-Blot Turbo™ system. […]
Assay [3] has as its system hMSCs. Briefly: Intracellular ATP determination in hMSCs.
Assay [4] relates to hMSCs. Briefly: Oxygen consumption rate (OCR) study in hMSCs.
Assay [5] has as its system hMSCs. Briefly: hMSC proliferation with citrate (CCK-8). The conditions noted are these: citrate 0 to 2000 μM, pH 7.4, in growth medium (GM).
Description: as §1
Human mesenchymal stem cells (hMSCs; Lonza) were cultured in low glucose Dulbecco's Modified Eagle Medium (DMEM) with 10 vol. % fetal bovine serum (FBS) (Atlanta Biologicals; Flowery Branch, Ga.) and GlutaMAX (Gibco Laboratories, Gaithersburg, Md.). […]
Assay [6] deals with hMSCs. Briefly: Alizarin Red staining and calcium quantification of hMSCs. As to conditions: citrate in growth medium (GM).
Protocol: hMSCs with passage ≤6 were used in the present differentiation study. […] Alizarin Red was used to stain the calcium nodules formed by the differentiating cells, and the calcium content in the nodules was quantified by Calcium Assay Kit (Sigma-Aldrich, St. Louis, Mo.) and normalized to protein amount as determined by BCA protein assay kit (Thermo Scientific™, Waltham, Mass.).
For Alizarin Red staining, cell samples were fixed with 4% paraformaldehyde, and 40 mM Alizarin red solutions were used to stain calcium nodules for 30 min with gentle shaking. After thoroughly washing, the stained cells were observed on a Microscope (Nikon, Tokyo, Japan). For calcium quantification, cell samples were washed with PBS and decalcified in 0.6 N HCl for 12 h with gentle shaking. Calcium content in the supernatants was determined colorimetrically by using the Calcium assay kit (Sigma-Aldrich, St. Louis, Mo.), while protein content in cell lysate solutions (lysed with RIPA buffer) was determined using the Pierce BCA protein assay kit (Thermo Scientific™, Waltham, Mass.) according to manufacturer's instructions.
Assay [7] deals with hMSCs. Briefly: Real-time PCR of osteogenic genes in differentiating hMSCs. As to conditions: 200 μM citrate vs OG control, 7 and 14 days.
Description: as §1
Total RNA from whole cells was isolated with QIAGEN RNeasy kit (Hilden, Germany) and was transcribed into cDNA using High-Capacity cDNA Reverse Transcription Kits (Applied Biosystems™, Foster City, Calif.). For quantitative analysis, real-time PCR was performed using cDNA as the template, together with TaqMan Gene Expression Master Mix and the TaqMan Gene Expression Assays with both primers and probe included (Applied Biosystems™, Foster City, Calif.), and using the ABI 7900HT Fast Real-Time PCR system (Applied Biosystems™, Foster City, Calif.) according to manufacturer's instructions. Human PPIA (Cyclophilin A) was used for normalization. The primers and TaqMan probe for human Runx2, CoL1A1, SPP1 and PPIA were Hs00231692_ml, Hs00164004_ml, Hs00959010_ml, and Hs99999904_ml, respectively.
Assay [8] relates to hMSCs. The assay is described as follows: Runx2 ELISA in hMSCs. The conditions noted are these: citrate treatment in OG, as early as day 4.
Description: as §1
Assay [9] concerns hMSCs. The assay is described as follows: Citrate assay, intracellular citrate in hMSCs. As to conditions: 24 h incubation with citrate supplemented medium.
In assay [10] the test system is hMSCs. The assay is described as follows: Extracellular acidification rate (ECAR) / glycolysis and lactate production in hMSCs. As to conditions: undifferentiated hMSCs, 24 h citrate treatment in GM.
[11] abbreviates: differentiating hMSCs in OG, vs OG medium control.
The mark [12] stands for this setting: undifferentiated hMSCs, 24 h citrate treatment in GM.

Take `C[C@@H]1C[C@@H]([C@H](O)CC2CC(=O)NC(=O)C2)C(=O)[C@@H](C)C1` [Cycloheximide]: the “citrate-mediated protein synthesis in presence of inhibitor” value with hMSCs [1] is reported as “abolished this activity”.
With `COc1ncc(C)cc1CC[C@@](O)(CC(=O)O)C(=O)O` [PF06761281, reference compound], in the assay on hMSCs [2] (14 days in OG, citrate plus inhibitor), the “citrate-induced elevation of ALP production with SLC13a5 inhibitor” value is “negated the citrate-induced elevation of ALP production”. Moreover, the “citrate effect on metabolic flux to elevate intracellular ATP levels, with SLC13a5 inhibitor” value in the assay with hMSCs [3] (undifferentiated hMSCs, citrate plus inhibitor) was “could be abolished”. Further, the “citrate-increased mitochondrial respiration with SLC13a5 inhibitor” value with hMSCs [4] (hMSCs differentiated for 14 days, 1 day treatment in OG) is “likewise abolished”.
`N[C@@H](COP(=O)(O)O)C(=O)O` [PSer, Phosphoserine]: in the assay with hMSCs [2] (40 μM PSer with citrate in OG, 21 days), the “citrate-promoted osteo-phenotype progression (ALP production)” value is “substantially enhanced”. For the same molecule, in the assay with hMSCs [2] (higher PSer dosages (up to 1000 μM) with citrate in OG, 21 days), the ALP production entry is given as “further elevation of ALP production”. Further, in the assay with hMSCs [3] (setting [11]), the “intracellular ATP” value is “showed no difference from the OG medium control”. Besides, the “intracellular ATP levels” value in the assay with hMSCs [3] (undifferentiated hMSCs, addition of PSer with or without citrate treatment) is “no significant effect”.
Take `CCC(=O)N1CCN(c2ccc(-n3c(=O)ccc4cnc5ccc(-c6cnc7ccccc7c6)cc5c43)cc2C(F)(F)F)CC1` [Torin1]: the “citrate-mediated protein synthesis in presence of inhibitor” value with hMSCs [1] is “abolished this activity”.
As to `O=C(O)CC(O)(CC(=O)O)C(=O)O` [citrate], in the assay with hMSCs [5], the hMSCs proliferation result is “little increase”. In addition, the “calcium deposition by Alizarin Red staining” value in the assay on hMSCs [6] is “absence of calcium deposition”. In the assay with hMSCs [7], the “expression of Col1a1 (real-time PCR)” value is recorded as “remarkably elevated expression”, the “expression of Runx2 (real-time PCR)” value was “remarkably elevated expression” and the “expression of SPP1 (real-time PCR)” value is reported as “remarkably elevated expression”. The “Runx2 protein (ELISA)” value with hMSCs [8] is “favorable accumulation”. Moreover, in the assay on hMSCs [1] (200 μM citrate in GM, 24 h and 96 h, vs control without citrate), the protein synthesis result was “increased significantly”. The intracellular citrate entry in the assay with hMSCs [9] was “marked increase”. Besides, the “intracellular ATP” value in the assay on hMSCs [3] (setting [11]) is listed as “showed no difference from the OG medium control”. Besides, the “intracellular ATP” value with hMSCs [3] (hMSCs differentiated for 14 days, citrate in OG for 1 or 4 days) was “significant effects on intracellular ATP only after 4 days of treatment”. Also, in the assay with hMSCs [3] (setting [12]), the “intracellular ATP levels” value was “elevated intracellular ATP levels”. Also, the “mitochondrial respiration (OCR)” value in the assay with hMSCs [4] (hMSCs differentiated for 14 days, 1 day citrate treatment in OG) is recorded as “markedly increased”. For the same molecule, the “oxygen consumption rate (OCR)” value in the assay with hMSCs [4] (setting [12]) is recorded as “increased oxygen consumption rate”. Further, in the assay with hMSCs [10], the “glycolytic flux (ECAR)” value is “decrease in glycolytic flux” and the production of lactate entry is “reduced production of lactate”.

(Values after patent US11738042B2, “Compositions and methods for promoting bone regeneration” (The Penn State Research Foundation, priority 2018, dated 2023).)
